The values below come from patent US8741934B2, “Inhibitors of ion channels” (Pfizer Limited, priority 2007, dated 2014).

Read-outs that look alike come from different tables or passages of the source. Bounds are passed on as bounds.

For this experiment, the target named is T1, hSCN3A sodium channels (Homo sapiens, UniProt Q9NY46).
T1 construct: expressed in transfected cells
The experiment can be described thus: hSCN3A electrophysiology, whole-cell patch-clamp or PatchXpress 7000, estimated IC-50 (Table B). It is filed as cell-based. The essentials:
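A 20 msec test pulse to 0 mV followed an 8 sec conditioning prepulse at each cell's measured V1/2. Room-temperature (22-24° C) recordings on HEK cells stably expressing the channel, conventional or PatchXpress.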

Where [1] appears, read: estimated IC-50, hSCN3A cells, whole-cell patch-clamp or PatchXpress 7000, read-out: SCN3A EIC-50.

T1 sequence (Q9NY46 whole entry): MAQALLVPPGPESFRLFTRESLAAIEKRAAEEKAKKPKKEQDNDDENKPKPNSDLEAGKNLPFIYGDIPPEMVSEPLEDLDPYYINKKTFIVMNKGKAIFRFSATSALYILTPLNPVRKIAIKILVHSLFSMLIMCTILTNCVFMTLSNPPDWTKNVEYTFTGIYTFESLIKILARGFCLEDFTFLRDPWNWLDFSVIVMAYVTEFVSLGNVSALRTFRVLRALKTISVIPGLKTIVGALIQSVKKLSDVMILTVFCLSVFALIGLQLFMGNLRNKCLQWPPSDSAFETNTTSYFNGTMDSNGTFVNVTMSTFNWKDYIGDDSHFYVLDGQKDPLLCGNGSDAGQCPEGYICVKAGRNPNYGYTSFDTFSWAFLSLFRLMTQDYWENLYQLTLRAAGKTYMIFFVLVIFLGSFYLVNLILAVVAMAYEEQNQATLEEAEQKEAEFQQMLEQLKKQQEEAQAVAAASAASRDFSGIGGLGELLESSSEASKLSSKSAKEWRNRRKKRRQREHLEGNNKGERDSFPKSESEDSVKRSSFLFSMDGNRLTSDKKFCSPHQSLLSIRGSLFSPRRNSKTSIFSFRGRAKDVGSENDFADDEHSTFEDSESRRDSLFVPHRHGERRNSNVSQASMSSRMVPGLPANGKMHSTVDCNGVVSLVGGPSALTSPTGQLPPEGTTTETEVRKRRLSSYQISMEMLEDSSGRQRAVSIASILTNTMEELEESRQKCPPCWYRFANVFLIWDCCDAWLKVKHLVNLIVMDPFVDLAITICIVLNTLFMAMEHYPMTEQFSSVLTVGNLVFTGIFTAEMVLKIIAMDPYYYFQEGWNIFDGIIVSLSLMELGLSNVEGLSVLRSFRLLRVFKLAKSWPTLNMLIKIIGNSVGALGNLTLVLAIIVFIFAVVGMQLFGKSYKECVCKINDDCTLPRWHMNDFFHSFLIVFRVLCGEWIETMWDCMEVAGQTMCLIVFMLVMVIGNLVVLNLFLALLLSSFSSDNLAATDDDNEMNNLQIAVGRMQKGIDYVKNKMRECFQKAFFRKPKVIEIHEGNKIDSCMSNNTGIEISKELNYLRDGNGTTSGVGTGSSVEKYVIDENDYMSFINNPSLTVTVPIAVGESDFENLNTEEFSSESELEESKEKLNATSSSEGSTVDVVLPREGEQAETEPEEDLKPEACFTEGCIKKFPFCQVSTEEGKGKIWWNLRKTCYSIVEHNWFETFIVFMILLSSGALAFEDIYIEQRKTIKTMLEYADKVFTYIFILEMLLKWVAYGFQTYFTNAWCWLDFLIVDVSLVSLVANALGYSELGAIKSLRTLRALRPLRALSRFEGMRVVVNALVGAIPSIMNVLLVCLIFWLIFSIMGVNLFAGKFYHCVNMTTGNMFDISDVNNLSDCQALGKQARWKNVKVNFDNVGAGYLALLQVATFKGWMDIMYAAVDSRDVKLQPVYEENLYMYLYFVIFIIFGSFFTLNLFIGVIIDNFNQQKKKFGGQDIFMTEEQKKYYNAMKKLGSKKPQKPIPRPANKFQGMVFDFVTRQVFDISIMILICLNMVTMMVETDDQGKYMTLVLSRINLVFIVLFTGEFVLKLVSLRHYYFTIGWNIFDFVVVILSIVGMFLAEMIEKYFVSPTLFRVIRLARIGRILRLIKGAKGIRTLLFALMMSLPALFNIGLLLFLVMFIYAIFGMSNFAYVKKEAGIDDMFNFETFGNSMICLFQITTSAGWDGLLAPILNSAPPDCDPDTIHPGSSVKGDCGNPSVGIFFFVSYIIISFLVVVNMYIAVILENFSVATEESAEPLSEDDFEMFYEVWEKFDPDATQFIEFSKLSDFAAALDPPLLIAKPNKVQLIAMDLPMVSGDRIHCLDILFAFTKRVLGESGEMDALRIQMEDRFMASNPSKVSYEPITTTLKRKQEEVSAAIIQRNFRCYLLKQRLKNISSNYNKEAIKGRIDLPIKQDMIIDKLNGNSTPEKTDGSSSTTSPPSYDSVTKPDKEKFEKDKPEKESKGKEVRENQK

With `O=C(NCc1ccc(C(F)(F)F)c(Cl)c1)c1ccc(S(=O)(=O)Nc2ncns2)cc1` [Example 324, N-[3-chloro-4-(trifluoromethyl)benzyl]-4-[(1,2,4-thiadiazol-5-ylamino)sulfonyl]benzamide], under setting [1], the IC50 is 30 nM.
`O=C(NCc1ccc(F)c(F)c1)c1ccc(S(=O)(=O)Nc2ncc(Cl)s2)c(F)c1` [Example 312, 4-{[(5-Chloro-1,3-thiazol-2-yl)amino]sulfonyl}-N-(3,4-difluorobenzyl)-3-fluorobenzamide]: the IC50 under setting [1] was 140 nM.
In the case of `N#CCCN(Cc1ccccc1)C(=O)c1ccc(S(=O)(=O)Nc2nccs2)cc1` [Example 218, N-benzyl-N-(2-cyanoethyl)-4-[(1,3-thiazol-2-yl-amino)sulfonyl]benzamide], under setting [1], the IC50 was 21200 nM.
`O=C(NCc1cccc(C(F)(F)F)c1F)c1ccc(S(=O)(=O)Nc2nccs2)cc1` [Example 392, N-[2-fluoro-3-(trifluoromethyl)benzyl]-4-[(1,3-thiazol-2-ylamino)sulfonyl]benzamide]: the IC50 under setting [1] is 230 nM.
As for `CC(NC(=O)c1ccc(S(=O)(=O)Nc2ncns2)cc1)c1ccc(C(F)(F)F)cc1` (stereo not shown) [Example 322, 4-[(1,2,4-Thiadiazol-5-ylamino)sulfonyl]-N-{1-[4-(trifluoromethyl)phenyl]ethyl}benzamide], the IC50 under setting [1] was 340 nM.
Take `O=C(NCc1ccc(OC(F)(F)F)c(F)c1)c1ccc(S(=O)(=O)Nc2nccs2)cc1` [Example 394, N-[3-fluoro-4-(trifluoromethoxy)benzyl]-4-[(1,3-thiazol-2-ylamino)sulfonyl]benzamide]: the IC50 under setting [1] is 90 nM.
Take `O=C(NCc1cccc(C(F)(F)F)c1F)c1ccc(S(=O)(=O)Nc2ncc(Cl)s2)cc1` [Example 40, 4-{[(5-Chloro-1,3-thiazol-2-yl)amino]sulfonyl}-N-[2-fluoro-3-(trifluoromethyl)benzyl]benzamide]: under setting [1], the IC50 is 210 nM.
On the same count and under the same terms, to `O=C(NCCc1ccc(Cl)cc1)c1ccc(S(=O)(=O)Nc2nccs2)cc1` [Example 72, N-[2-(4-chlorophenyl)ethyl]-4-[(1,3-thiazol-2-ylamino)sulfonyl]benzamide] belongs 660 nM; to `O=C(NCc1ccc(Cl)c(Cl)c1)c1ccc(S(=O)(=O)Nc2nccs2)c(Cl)c1` [Example 291, 3-Chloro-N-(3,4-dichlorobenzyl)-4-[(1,3-thiazol-2-ylamino)sulfonyl]benzamide], 710 nM; to `O=C(NCc1cccc(C(F)(F)F)c1)c1ccc(S(=O)(=O)Nc2ncc(Cl)s2)cc1` [Example 28, 4-{[(5-Chloro-1,3-thiazol-2-yl)amino]sulfonyl}-N-[3-(trifluoromethyl)benzyl]benzamide], 240 nM.
For the molecule `O=C(NCc1ccc(OC(F)(F)F)c(F)c1)c1ccc(S(=O)(=O)Nc2ncc(Cl)s2)cc1` [Example 38], under setting [1], the IC50 was 60 nM.
Take `Cc1cc(CC(NC(=O)c2ccc(S(=O)(=O)Nc3nccs3)cc2)c2cccc(Cl)c2)on1` (stereo not shown) [Example 136, N-[1-(3-chlorophenyl)-2-(3-methylisoxazol-5-yl)ethyl]-4-[(1,3-thiazol-2-ylamino)sulfonyl]benzamide]: under setting [1], the IC50 was 4260 nM.
As to `O=C(NCc1cccc(F)c1)c1ccc(S(=O)(=O)Nc2nccs2)cc1` [Example 90, N-(3-fluorobenzyl)-4-[(1,3-thiazol-2-ylamino)sulfonyl]benzamide], the IC50 under setting [1] was 1660 nM.
On to `O=C(NCc1cccc(OC(F)(F)F)c1)c1ccc(S(=O)(=O)Nc2ncc(Cl)s2)cc1F` [Example 357, 4-{[(5-Chloro-1,3-thiazol-2-yl)amino]sulfonyl}-2-fluoro-N-[3-(trifluoromethoxy)benzyl]benzamide], for which the IC50 under setting [1] is 190 nM.
For the molecule `O=C(c1ccc(S(=O)(=O)Nc2nccs2)cc1)N1CCCC(Oc2ccccc2)C1` (stereo not shown) [Example 277, 4-[(3-Phenoxypiperidin-1-yl)carbonyl]-N-1,3-thiazol-2-yl-benzenesulfonamide], under setting [1], the IC50 is 2190 nM.
Same read-out and setting: to `O=C(NCc1ccc(C(F)(F)F)cc1)c1ccc(S(=O)(=O)Nc2ccon2)cc1` [Example 7, 4-[(Isoxazol-3-ylamino)sulfonyl]-N-[4-(trifluoromethyl)benzyl]benzamide] belongs 5870 nM.
As for `O=C(NCc1ccc(F)c(OC(F)(F)F)c1)c1ccc(S(=O)(=O)Nc2nccs2)c(F)c1` [Example 300, 3-Fluoro-N-[4-fluoro-3-(trifluoromethoxy)benzyl]-4-[(1,3-thiazol-2-ylamino)sulfonyl]benzamide], the IC50 under setting [1] is 130 nM.
As to `O=C(NCc1ccc(C(F)(F)F)cc1)c1cccc(S(=O)(=O)Nc2nncs2)c1` [Example 350, 3-[(1,3,4-Thiadiazol-2-ylamino)sulfonyl]-N-[4-(trifluoromethyl)benzyl]benzamide], the IC50 is above 10000 nM.
For the molecule `O=C(NCc1ccc(C(F)(F)F)cc1)c1ccc(S(=O)(=O)Nc2ncc(Cl)s2)c(Cl)c1` [Example 373, 3-Chloro-4-{[(5-chloro-1,3-thiazol-2-yl)amino]sulfonyl}-N-[4-(trifluoromethyl)benzyl] benzamide], the IC50 under setting [1] was 490 nM.
Consider `O=C(NCc1ccc(F)c(F)c1)c1ccc(S(=O)(=O)Nc2nccs2)cc1F` [Example 329, N-(3,4-difluorobenzyl)-2-fluoro-4-[(1,3-thiazol-2-ylamino)sulfonyl] benzamide], for which the IC50 under setting [1] was 360 nM.
Take `O=C(NCc1ccc(OC(F)(F)F)c(Cl)c1)c1ccc(S(=O)(=O)Nc2ncns2)cc1Cl` [Example 378, 2-Chloro-N-[3-chloro-4-(trifluoromethoxy)benzyl]-4-[(1,2,4-thiadiazol-5-ylamino)sulfonyl] benzamide]: under setting [1], the IC50 is 180 nM.
With `Cc1cc(NC(=O)c2ccc(S(=O)(=O)Nc3nccs3)cc2)n(-c2ccccc2)n1` [Example 307, N-(3-methyl-1-phenyl-1H-pyrazol-5-yl)-4-[(1,3-thiazol-2-ylamino)sulfonyl]benzamide], under setting [1], the IC50 was 23700 nM.
Still for that read-out and setting: the value for `O=C(NC(c1cccc(C(F)(F)F)c1F)C1CC1)c1ccc(S(=O)(=O)Nc2nccs2)cc1` (stereo not shown) [Example 119, N-{cyclopropyl[2-fluoro-3-(trifluoromethyl)phenyl]methyl}-4-[(1,3-thiazol-2-ylamino)sulfonyl]benzamide] was 1290 nM; that for `Cc1ncc(NS(=O)(=O)c2ccc(C(=O)NCc3ccc(C(F)(F)F)cc3)cc2)s1` [Example 16, 4-{[(2-Methyl-1,3-thiazol-5-yl)amino]sulfonyl}-N-[4-(trifluoromethyl)benzyl]benzamide] was above 10000 nM; that for `O=C(NCc1ccc(C(F)(F)F)cc1)c1ccc(S(=O)(=O)Nc2nccs2)cn1` [Example 342, 5-[(1,3-Thiazol-2-ylamino)sulfonyl]-N-[4-(trifluoromethyl)benzyl] pyridine-2-carboxamide] was 510 nM.
In the case of `O=C(NCc1ccc(F)c(Cl)c1)c1ccc(S(=O)(=O)Nc2ncc(Cl)s2)c(Cl)c1` [Example 363, 3-Chloro-N-(3-chloro-4-fluorobenzyl)-4-{[(5-chloro-1,3-thiazol-2-yl)amino]sulfonyl} benzamide], the IC50 under setting [1] is 1200 nM.
In the case of `O=C(NCc1cccc(Cl)c1Cl)c1ccc(S(=O)(=O)Nc2nccs2)cc1` [Example 97, N-(2,3-dichlorobenzyl)-4-[(1,3-thiazol-2-ylamino)sulfonyl]benzamide], under setting [1], the IC50 is 640 nM.
Regarding `O=C(c1ccc(S(=O)(=O)Nc2nccs2)cc1)N1CCOC(COc2ccc(F)cc2Cl)C1` (stereo not shown) [Example 266, 4-({2-[(2-Chloro-4-fluorophenoxy)methyl]morpholin-4-yl}carbonyl)-N-1,3-thiazol-2-ylbenzenesulfonamide], the IC50 under setting [1] is 1670 nM.
Consider `O=C(NCc1ccc(F)c(C(F)(F)F)c1)c1ccc(S(=O)(=O)Nc2ncc(Cl)s2)cc1F` [Example 353, 4-{[(5-Chloro-1,3-thiazol-2-yl)amino]sulfonyl}-2-fluoro-N-[4-fluoro-3-(trifluoromethyl)benzyl]benzamide], for which the IC50 under setting [1] is 220 nM.
Take `O=C(NCc1ccc(OC(F)(F)F)cc1)c1ccc(S(=O)(=O)Nc2nccs2)c(Cl)c1` [Example 284, 3-Chloro-4-[(1,3-thiazol-2-ylamino)sulfonyl]-N-[4-(trifluoromethoxy)benzyl]benzamide]: the IC50 under setting [1] is 1220 nM.
On the same count and under the same terms, to `O=C(c1ccc(S(=O)(=O)Nc2nccs2)cc1)N1CCCCC1c1ccccc1` (stereo not shown) [Example 239, 4-[(2-Phenylpiperidin-1-yl)carbonyl]-N-1,3-thiazol-2-yl-benzenesulfonamide] belongs 2970 nM; to `O=C(NCc1ccc(F)c(Cl)c1)c1ccc(S(=O)(=O)Nc2ncc(Cl)s2)cc1` [Example 36, N-(3-Chloro-4-fluorobenzyl)-4-{[(5-chloro-1,3-thiazol-2-yl)amino]sulfonyl}benzamide], 70 nM; to `Cc1ccc(Cl)cc1CNC(=O)c1ccc(S(=O)(=O)Nc2nccs2)cc1` [Example 64, N-(5-chloro-2-methylbenzyl)-4-[(1,3-thiazol-2-ylamino)sulfonyl]benzamide], 450 nM.
Consider `O=C(NCc1ccc(F)c(OC(F)(F)F)c1)c1ccc(S(=O)(=O)Nc2ncc(Cl)s2)cc1` [Example 32, 4-{[(5-Chloro-1,3-thiazol-2-yl)amino]sulfonyl}-N-[4-fluoro-3-(trifluoromethoxy)benzyl]benzamide], for which, under setting [1], the IC50 was 70 nM.
Still for that read-out and setting: to `O=C(c1ccc(S(=O)(=O)Nc2nccs2)cc1)N1CCCC(Cc2cccc(F)c2)C1` (stereo not shown) [Example 47, 4-{[3-(3-Fluorobenzyl)piperidin-1-yl]carbonyl}-N-1,3-thiazol-2-ylbenzenesulfonamide] belongs 920 nM; to `O=C(NCc1ccc(C(F)(F)F)c(F)c1)c1ccc(S(=O)(=O)Nc2nccs2)cn1` [Example 340, N-[3-fluoro-4-(trifluoromethyl)benzyl]-5-[(1,3-thiazol-2-ylamino)sulfonyl]pyridine-2-carboxamide], 280 nM; to `O=C(NCc1ccc(C(F)(F)F)cc1)c1ccc(S(=O)(=O)Nc2nc(C(F)(F)F)cs2)cc1` [Example 4, N-[4-(Trifluoromethyl)benzyl]-4-({[4-(trifluoromethyl)-1,3-thiazol-2-yl]amino}sulfonyl)benzamide], 2530 nM.
